Test results from patent US12484600B2, “Expanded foam for delivery of functional ingredients” (Boehringer Ingelheim Vetmedica GmbH, priority 2020, dated 2025).

Test system: Staphylococcus aureus NCTC 8325-4
Test: Growth in LB broth flask culture with or without calcium chloride supplementation (visual growth, terminal plate count)
Assay type: cell-based
Conditions: for critical limit in combination with 0.5% calcium chloride: procedures as for Table 8
Method: The test organism is Staphylococcus aureus NCTC 8325-4 as described in the methods and flask cultures are 100 ml of Luria-Bertani broth (LB broth) in 250 ml Erlenmeyer flasks. LB broth is used instead of brain Heart Infusion because it is more defined and limited in mineral content.
A standard inoculum is grown as described in the methods section and adjusted to a viable cell count of […] by dilution in sterile saline, 0.1 ml of this is used to aseptically inoculate 100 ml volumes of test media—the inoculum being […] in the test flask.
To determine the Minimum Inhibitory effect of hexametaphosphate a series of flasks with 100 ml of LB broth were each supplemented with concentrations of hexametaphosphate ranging from 0% W/W to 1% W/W, each flask was inoculated with a standard inoculum to achieve 1×10^3 viable bacterial in the flask, the flasks were incubated at 37° C. in a rotary incubator for 24 hours and evaluated visually for growth at that time.
Following visual evaluation, 0.5% sterile calcium chloride was added to all flasks and incubation continued for a further 24 hours.

For [Ca+2].[Cl-].[Cl-] [Calcium, calcium chloride], the “24 H CFU/ml” value (0.5% Calcium, LB broth) was >10^9 CFU/ml and the effect on growth (0.5% calcium chloride supplement alone) was “no effect on growth”.

O=P1([O-])OP(=O)([O-])OP(=O)([O-])OP(=O)([O-])OP(=O)([O-])OP(=O)([O-])O1.[Na+].[Na+].[Na+].[Na+].[Na+].[Na+] [SHMP, sodium hexametaphosphate] was tested, and the “24 H CFU/ml” value (0.27% SHMP, LB broth) was ~2 × 10^2 CFU/ml, the residual viability (0.27% hexametaphosphate, 24 hours) was 2×10^2 and the “concentrations that remained inhibited post addition of calcium chloride” value (0.5% calcium chloride) was “at least 0.5%”. For the same molecule, the “concentrations with full growth 24 hours post addition of calcium chloride” value (0.5% calcium chloride) was ≤ 0.27%, the “effect on microbial growth under conditions of excess calcium” value (0.5% calcium chloride, 0.27% SHMP, 0.375% functional emulsion) was “no inhibitory effect on microbial growth” and the “concentrations at which growth was apparently inhibited” value (LB broth, 24 hours, no calcium supplementation) was ≥ 0.05%.

O=c1ccn([C@@H]2O[C@H](COP(=O)(O)O)[C@@H](O)[C@H]2O)c(=O)[nH]1 [Uridine monophosphate] was tested, and the “critical limit in combination with 0.5% calcium chloride” value was “inconclusive”.

For O=P([O-])([O-])O.[Na+].[Na+] [di-sodium orthophosphate], the “critical limit in combination with 0.5% calcium chloride” value was 0.75%.

With O=P([O-])([O-])O[C@H]1[C@H](OP(=O)([O-])O)[C@H](OP(=O)([O-])[O-])[C@H](OP(=O)([O-])O)[C@@H](OP(=O)([O-])[O-])[C@@H]1OP(=O)([O-])O.[Na+].[Na+].[Na+].[Na+].[Na+].[Na+].[Na+].[Na+].[Na+] [sodium phytate] the “critical limit in combination with 0.5% calcium chloride” value was 0.2%.

With O=C([O-])CC(O)(CC(=O)[O-])C(=O)[O-].[Na+].[Na+].[Na+] [tri-sodium citrate] the “critical limit in combination with 0.5% calcium chloride” value was 0.5%.
